Several values for one entry are separate records, joined by “and”; a condition that tells them apart may be missing. Identical values can stand only once.
Test: Biliary excretion after intravenous administration in bile duct-cannulated rats
Type: in vivo, Wistar ST rats
Procedure: SPF Wistar ST rats (6 weeks of age, male, 180 ± 20 g of body weight) were purchased from Japan SLC Inc. (Hamamatsu, Japan). The rats were housed in an air-conditioned room at 22 ± 2°C under cycles of 12 hours dark and 12 hours light and given free access to a commercial diet and water for a week. The rats were then fasted for over 16 hours before the experiments. The present study was approved by the Animal Care and Use Committee at Kagawa University, and the rat treatment conformed to the Rules of Animal Experiments at Kagawa University. After fasting, the rats were cannulated with a polyethylene tube (PE-50; 0.58 mm I.D., 0.965 mm O.D.) into the jugular vein, portal vein, or bile duct under anesthesia with isoflurane inhalation using a WP-SAA01 (LMS Co., Ltd., Tokyo, Japan). A small hole was made in the vein or duct using pointed scissors and cannulated with the polyethylene tube. After inserting the tube, it was fixed at the edge of the vein or duct. The jugular vein and portal vein cannulas penetrated under the skin and were then tied at the back of the rats, and the bile duct cannula was tied at the abdomen of the rats. Bile duct-cannulated rats were then restrained in a Bollman cage (Natsume Seisakusho Co., Ltd., Tokyo, Japan). Before further experiments, the rats were allowed to recover from anesthesia. 3,4-[…] (300 mg/kg body weight; 936.51 μmol/kg) dissolved in 50% polyethylene glycol aqueous solution was administered orally via a stomach tube to the portal vein cannulated rats. Blood samples (450 μL) were then collected using a heparinized syringe attached to the cannula before administration and 5, 15, 30, 60, 120, and 240 min after administration. Urine was also collected before administration and 0 to 2 h and 2 to 4 h after administration. For intravenous administration, 3,4-[…] (10 mg/kg; 31.22 μmol/kg) was injected into the jugular vein, and blood (450 μL) was collected using a heparinized syringe before administration and 5, 15, 30, 60, 120, and 240 min after administration via the jugular vein cannula. The blood (450 μL) collected was immediately cooled on ice and centrifuged at 15,000 rpm for 5 min at 4°C to obtain over 200 μL plasma. Urine was also collected before administration and 0 to 2 h and 2 to 4 h after administration. Bile was collected via the bile duct cannula before administration and 0 to 2 h and 2 to 4 h after intravenous administration. The collected plasma, urine, and bile were immediately stored in an ice box until further analyses. HT (oral administration: 100 mg/kg; 648.66 μmol/kg, intravenous administration: 10 mg/kg; 64.87 μmol/kg) and Ole (oral administration: 300 mg/kg; 555.02 μmol/kg, intravenous administration: 10 mg/kg; 18.50 μmol/kg) were investigated using the same method as described above. Metabolites were deconjugated by using β-glucuronidase (500 U) and sulfatase (50 U) in 50 μL 625 mM MOPS (pH 6.8), which was added to 200 μL of plasma, urine, or bile. The mixture was incubated for 45 min at 37°C and subjected to extraction using QuEChERS [33]. […] Shimadzu, Kyoto, Japan) equipped with a Shim-pack XR-ODS column (3.0 mm I.D. × 100 mm; Shimadzu, Kyoto, Japan) at 40°C with a mobile phase of 0.5% TFA-1% acetonitrile aqueous solution (A) and 0.5% TFA-75% acetonitrile aqueous solution (B). The elution conditions are described as follows: isocratic elution of 0% B was maintained for 4.0 min; linear gradient 0 to 4% B, 4.0-4.5 min; linear gradient 4.0-16.0% B, 4.5-16.0 min; linear gradient 16.0-100% B, 16.0-25.0 min; isocratic elution of 100% B, 25.0-26.0 min; and linear gradient 100 to 0% B, 26.0-26.1 min, with a flow rate of 0.5 mL/min. Injection volume was 50 μL. All eluted peaks were detected at 279 nm with a diode array detector (SPD-M20A; Shimadzu, Kyoto, Japan).

| Ole in bile | HT in bile | Detection of parent 3,4-DHPEA-EDA in bile | HVA in bile | HVAOH in bile | Structure (SMILES) |
| --- | --- | --- | --- | --- | --- |
| 3.22 % of dose |  |  |  |  | C/C=C1/[C@H](O[C@@H]2O[C@H](CO)[C@@H](O)[C@H](O)[C@H]2O)OC=C(C(=O)OC)[C@H]1CC(=O)OCCc1ccc(O)c(O)c1 [Oleuropein, reference compound] |
|  | 0.079 % of dose |  |  |  | OCCc1ccc(O)c(O)c1 [Hydroxytyrosol, 2-(3,4-dihydroxyphenyl) ethyl alcohol, reference compound] |
|  | 0.174 % of dose and 0.17 % of dose | not observed | 0.048 % of dose and 0.05 % of dose | 0.255 % of dose and 0.26 % of dose | CC=C(C=O)C(CC=O)CC(=O)OCCc1ccc(O)c(O)c1 (stereo not drawn) [3,4-DHPEA-EDA, 3,4-dihydroxyphenylethyl elenolate dialdehydic form] |
